Results as given in the NIST ThermoML archive (doi:10.1016/j.tca.2009.03.005).

How the values were obtained:
[1] = Molar enthalpy of transition or fusion; settings: Crystal 2; DSC
[2] = molar heat capacity at constant pressure; settings: 101.33 kPa
[3] = DTA

O=N[O-].[Na+] [sodium nitrite]
Settings | Molar enthalpy of transition or fusion [kcal/mol]
[1] | 3.32

[2]
Settings | molar heat capacity at constant pressure [J/K/mol]
273.15 K, Crystal 3, Small sample (50 mg) DSC | 85.2
278.15 K, Crystal 3, Small sample (50 mg) DSC | 85.3
283.15 K, Crystal 3, Small sample (50 mg) DSC | 86
288.15 K, Crystal 3, Small sample (50 mg) DSC | 86.6
293.15 K, Crystal 3, Small sample (50 mg) DSC | 87.3
298.15 K, Crystal 3, Small sample (50 mg) DSC | 88.1
303.15 K, Crystal 3, Large sample (1 g) DSC | 85.3
303.15 K, Crystal 3, Small sample (50 mg) DSC | 88.8
308.15 K, Crystal 3, Small sample (50 mg) DSC | 90.1
313.15 K, Crystal 3, Small sample (50 mg) DSC | 90.8
318.15 K, Crystal 3, Small sample (50 mg) DSC | 91.8
323.15 K, Crystal 3, Large sample (1 g) DSC | 89.3
323.15 K, Crystal 3, Small sample (50 mg) DSC | 92.8
328.15 K, Crystal 3, Small sample (50 mg) DSC | 94
333.15 K, Crystal 3, Small sample (50 mg) DSC | 95.3
338.15 K, Crystal 3, Small sample (50 mg) DSC | 96.7
343.15 K, Crystal 3, Large sample (1 g) DSC | 94.1
343.15 K, Crystal 3, Small sample (50 mg) DSC | 98
348.15 K, Crystal 3, Small sample (50 mg) DSC | 99.8
353.15 K, Crystal 3, Small sample (50 mg) DSC | 101.3
358.15 K, Crystal 3, Small sample (50 mg) DSC | 102.5
363.15 K, Crystal 3, Large sample (1 g) DSC | 99.9
363.15 K, Crystal 3, Small sample (50 mg) DSC | 103.5
368.15 K, Crystal 3, Small sample (50 mg) DSC | 106.2
373.15 K, Crystal 3, Small sample (50 mg) DSC | 108.2
378.15 K, Crystal 3, Small sample (50 mg) DSC | 109.9
383.15 K, Crystal 3, Large sample (1 g) DSC | 107.8
383.15 K, Crystal 3, Small sample (50 mg) DSC | 111.6
388.15 K, Crystal 3, Small sample (50 mg) DSC | 115.3
393.15 K, Crystal 3, Small sample (50 mg) DSC | 118.2
398.15 K, Crystal 3, Small sample (50 mg) DSC | 121.5
403.15 K, Crystal 3, Large sample (1 g) DSC | 119.3
403.15 K, Crystal 3, Small sample (50 mg) DSC | 124.4
408.15 K, Crystal 3, Small sample (50 mg) DSC | 130
413.15 K, Crystal 3, Small sample (50 mg) DSC | 135.6
418.15 K, Crystal 3, Small sample (50 mg) DSC | 142.7
419.15 K, Crystal 3, Small sample (50 mg) DSC | 144.39
420.15 K, Crystal 3, Small sample (50 mg) DSC | 146.16
421.15 K, Crystal 3, Small sample (50 mg) DSC | 148.05
422.15 K, Crystal 3, Small sample (50 mg) DSC | 150.11
423.15 K, Crystal 3, Small sample (50 mg) DSC | 152.4
424.15 K, Crystal 3, Small sample (50 mg) DSC | 154.72
425.15 K, Crystal 3, Small sample (50 mg) DSC | 157.33
426.15 K, Crystal 3, Small sample (50 mg) DSC | 160.25
427.15 K, Crystal 3, Small sample (50 mg) DSC | 163.31
428.15 K, Crystal 3, Small sample (50 mg) DSC | 166.7
429.15 K, Crystal 3, Small sample (50 mg) DSC | 170.6
430.15 K, Crystal 3, Small sample (50 mg) DSC | 175.1
431.15 K, Crystal 3, Small sample (50 mg) DSC | 180.4
437.25 K, Crystal 2, Small sample (50 mg) DSC | 215.4
437.35 K, Crystal 2, Small sample (50 mg) DSC | 213.7
437.45 K, Crystal 2, Small sample (50 mg) DSC | 213.5
437.55 K, Crystal 2, Small sample (50 mg) DSC | 213.7
437.75 K, Crystal 2, Small sample (50 mg) DSC | 215.5
437.85 K, Crystal 2, Small sample (50 mg) DSC | 217.1
437.95 K, Crystal 2, Small sample (50 mg) DSC | 220.4
438.05 K, Crystal 2, Small sample (50 mg) DSC | 223.4
438.15 K, Crystal 2, Small sample (50 mg) DSC | 223.6
468.15 K, Crystal 1, Small sample (50 mg) DSC | 129
473.15 K, Crystal 1, Small sample (50 mg) DSC | 129.8
478.15 K, Crystal 1, Small sample (50 mg) DSC | 130.8
483.15 K, Crystal 1, Large sample (1 g) DSC | 131.6
483.15 K, Crystal 1, Small sample (50 mg) DSC | 131.9
488.15 K, Crystal 1, Small sample (50 mg) DSC | 133.2
493.15 K, Crystal 1, Small sample (50 mg) DSC | 134.7
498.15 K, Crystal 1, Small sample (50 mg) DSC | 136
503.15 K, Crystal 1, Large sample (1 g) DSC | 138.7
503.15 K, Crystal 1, Small sample (50 mg) DSC | 137.8
508.15 K, Crystal 1, Small sample (50 mg) DSC | 140
513.15 K, Crystal 1, Small sample (50 mg) DSC | 142.4
518.15 K, Crystal 1, Small sample (50 mg) DSC | 145.2
521.15 K, Crystal 1, Small sample (50 mg) DSC | 147.7
522.15 K, Crystal 1, Small sample (50 mg) DSC | 148.5
523.15 K, Crystal 1, Large sample (1 g) DSC | 148.8
523.15 K, Crystal 1, Small sample (50 mg) DSC | 148.9
524.15 K, Crystal 1, Small sample (50 mg) DSC | 149.8
525.15 K, Crystal 1, Small sample (50 mg) DSC | 150.9
526.15 K, Crystal 1, Small sample (50 mg) DSC | 152
527.15 K, Crystal 1, Small sample (50 mg) DSC | 153
528.15 K, Crystal 1, Small sample (50 mg) DSC | 153.2
529.15 K, Crystal 1, Small sample (50 mg) DSC | 155
530.15 K, Crystal 1, Small sample (50 mg) DSC | 156
531.15 K, Crystal 1, Small sample (50 mg) DSC | 157.5
532.15 K, Crystal 1, Small sample (50 mg) DSC | 158.7
533.15 K, Crystal 1, Large sample (1 g) DSC | 161.2
533.15 K, Crystal 1, Small sample (50 mg) DSC | 160.2
534.15 K, Crystal 1, Small sample (50 mg) DSC | 161.8
535.15 K, Crystal 1, Small sample (50 mg) DSC | 163.1
536.15 K, Crystal 1, Small sample (50 mg) DSC | 165.7
537.15 K, Crystal 1, Small sample (50 mg) DSC | 168
538.15 K, Crystal 1, Small sample (50 mg) DSC | 169.8
539.15 K, Crystal 1, Small sample (50 mg) DSC | 173.2
540.15 K, Crystal 1, Small sample (50 mg) DSC | 176.4

[2], Liquid, Small sample (50 mg) DSC
Settings | molar heat capacity at constant pressure [J/K/mol]
562.15 K | 116.8
563.15 K | 110
564.15 K | 110.2
565.15 K | 109.9
566.15 K | 110.2
568.15 K | 110.9
573.15 K | 111.9
578.15 K | 112.3
583.15 K | 112.6

[3]
Settings | Normal melting temperature [°C] | Triple point temperature [K]
Crystal 1 | 280.1 | –
Crystal 2 | – | 438.7
Crystal 3 | – | 437.2
